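Where inhibition never reached the appropriate level, the endpoint shown equals the highest concentration tested. Otherwise, values were interpolated linearly from a five-concentration, 48-hour dose response in 96-well plates. Here, GI50 denotes the concentration required for 50% inhibition of growth. TGI marks complete inhibition of growth.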 Some results are limits rather than exact numbers.

Test in all cases: NCI-60 cell line screen, 48 h
Test [1] relates to A498 renal.
In test [2] the test system is HCC-2998 colon.
The subject of test [3] is UO-31 renal.
In test [4] the test system is SNB-19 CNS.
Test [5] relates to SW-620 colon.
Test [6] has as its system HOP-62 NSCLC.
Test [7] deals with NCI-H522 lung.
In test [8] the test system is HCT-15 colon.

Take `COc1ccc(-c2cc(/C=C/C(=O)c3ccc(N)cc3)[nH]n2)cc1`: the GI50 was 2.03 µM in test [1]; 1.83 µM in test [2]; 1.18 µM in test [3]; 2.29 µM in test [4]; 1.69 µM in test [5]; 2.8 µM in test [6]. Also, the results for the GI50 in test [7] and in test [8] were 1.21 µM and 1 µM, respectively. Further, the TGI in test [1] was found to be 4.95 µM; in test [2], 3.36 µM; in test [3] it was 2.56 µM; in test [4], 11.6 µM; in test [5], 5.41 µM; in test [6] it was 7.49 µM. For the same compound, the TGI came out at 2.91 µM in test [7] and 3.62 µM in test [8].

In the case of `COc1ccc(C2=Nn3c(nnc3-n3nc(C)cc3C)SC2)cc1`, the GI50 in test [1] was 0.0303 µM; in test [2], 0.254 µM; in test [3] it was 0.212 µM; in test [4], 0.0831 µM; in test [5], 0.0423 µM; in test [6], 0.0839 µM. The GI50 is 0.031 µM in test [7] and 0.05 µM in test [8]. Further, the TGI in test [1] is 0.207 µM; in test [2], greater than 100 µM; in test [3], greater than 100 µM; in test [4] it was greater than 100 µM; in test [5] it was greater than 100 µM; in test [6] it was greater than 100 µM. Besides, the TGI is 0.529 µM in test [7] and greater than 100 µM in test [8].

On to `COc1cc(-c2nn(-c3cccc(NC(=O)CCNc4ccc(N5CCOCC5)cc4)c3)cc2-c2ccncc2)ccc1Cl`, for which the GI50 was 2.52 µM in test [1]; 4.77 µM in test [2]; 2.7 µM in test [3]; 3.34 µM in test [4]; 3.55 µM in test [5]; 3.48 µM in test [6]. For the same compound, the GI50 is 2.52 µM in test [7] and 2.35 µM in test [8]. Moreover, the TGI in test [1] is 17.4 µM; in test [2], greater than 100 µM; in test [3], greater than 100 µM; in test [4], greater than 100 µM; in test [5], greater than 100 µM; in test [6] it was 22.3 µM. Further, the figures for the TGI in test [7] and in test [8] were 9.82 µM and greater than 100 µM, respectively.

For `C#C[C@]1(O)CC[C@H]2[C@@H]3CC=C4c5nc(N)sc5CC[C@]4(C)[C@H]3CC[C@@]21C`, the GI50 in test [1] was 1.96 µM; in test [2], 4.21 µM; in test [3], 2.68 µM; in test [4], 6.2 µM; in test [5], 2.81 µM; in test [6] it was 3.43 µM. Moreover, the results for the GI50 in test [7] and in test [8] were 2.52 µM and 3.2 µM, respectively. The TGI was found to be 4.21 µM in test [1]; 19.2 µM in test [2]; 10.5 µM in test [3]; 31.1 µM in test [4]; 8.68 µM in test [5]; 14.7 µM in test [6]. Further, the TGI in test [7] amounted to 7.94 µM; in test [8], 17.3 µM.

For the compound `CC1(C)N=C(N)N=C(N)N1c1cccc(CCc2ccccc2)c1`, the GI50 in test [1] was 3.57 µM; in test [2] it was 1.69 µM; in test [3], greater than 100 µM; in test [4], 0.696 µM; in test [5], 0.156 µM; in test [6] it was 1.29 µM. In addition, the figures for the GI50 in test [7] and in test [8] were 0.429 µM and 45.6 µM, respectively. The TGI in test [1] is 96.9 µM; in test [2], greater than 38.7 µM; in test [3], greater than 100 µM; in test [4], greater than 100 µM; in test [5], greater than 100 µM; in test [6], greater than 100 µM. Also, the TGI in test [7] is 34.8 µM; in test [8] it was greater than 100 µM.

As to `CC1(C)C2CCC13C(=O)C1OC3(C2)C2C(=O)c3c(ccc4c3ccc3ccccc34)C(=O)C12` (stereo not drawn), the GI50 in test [1] is greater than 100 µM; in test [2] it was greater than 100 µM; in test [3], greater than 100 µM; in test [4] it was greater than 43.5 µM; in test [5], 56.5 µM; in test [6] it was greater than 100 µM. For the same compound, the GI50 was greater than 62.1 µM in test [7] and greater than 53.5 µM in test [8]. Further, the TGI in test [1], in test [2], in test [3], in test [4], in test [5] and in test [6] was greater than 100 µM each time. In addition, the TGI in test [7] and in test [8] was greater than 100 µM each time.

Consider `CN1CC[C@H](c2c(O)cc(O)c3c(=O)cc(-c4ccccc4Cl)oc23)[C@H](O)C1`, for which the GI50 was 0.0215 µM in test [1]; 0.124 µM in test [2]; 0.0662 µM in test [3]; 0.0647 µM in test [4]; 0.0572 µM in test [5]; 0.0515 µM in test [6]. In test [7], the GI50 is 0.102 µM. The TGI in test [1] was 0.062 µM; in test [2] it was 0.761 µM; in test [3], greater than 10 µM; in test [4] it was greater than 10 µM; in test [5], greater than 10 µM; in test [6], greater than 2.62 µM. In addition, the TGI in test [7] is 0.847 µM; in test [8] it was greater than 10 µM.

For the compound `COc1cc(/C=C2\SC(N3CCCCC3)=NC2=O)ccc1OCCCCCCOc1ccc(/C=C2\SC(N3CCCCC3)=NC2=O)cc1OC`, the GI50 in test [1] is 12.8 µM; in test [2], 13.6 µM; in test [3], 13.2 µM; in test [4] it was 9.58 µM; in test [5], 14.9 µM; in test [6], 4.05 µM. For the same compound, the GI50 in test [7] is 3.18 µM; in test [8] it was 15.2 µM. Further, the TGI in test [1] was 46.2 µM; in test [2], 27 µM; in test [3], 39.3 µM; in test [4], 39.7 µM; in test [5] it was 48.3 µM; in test [6], 16.3 µM. Besides, the results for the TGI in test [7] and in test [8] were 22 µM and 53.1 µM, respectively.

On to `CCOc1ccc2cc(-c3nn(CC4CCNCC4)c4ncnc(N)c34)ccc2c1`, for which the GI50 in test [1] is 11.2 µM; in test [2], 17.1 µM; in test [3] it was 5.61 µM; in test [4], 16.7 µM; in test [5] it was 15.2 µM; in test [6] it was 16.3 µM. In addition, the GI50 in test [7] is 15.8 µM; in test [8] it was 13.5 µM. Besides, the TGI in test [1] was 24.9 µM; in test [2] it was 31.5 µM; in test [3] it was 20.7 µM; in test [4], 34.5 µM; in test [5] it was 31.4 µM; in test [6], 39.4 µM. For the same compound, the TGI came to 30.4 µM in test [7] and 32.1 µM in test [8].

These data come from PubChem BioAssay (NCI).
